Numbered stars: 1 amine (or outer) side, 2 acyl side, 3 side chain; on linkers, the order of the positions; unused ones are H or OH. Square brackets hold non-standard residues; d marks the D form. Side chains are listed from the residue outwards. Peptide text beside a SMILES is read from it. * marks the point of attachment. C20 diacid = O=C(O)CCCCCCCCCCCCCCCCCCC(=O)*; γGlu = O=C(O)[C@H](CCC(=O)[*:2])N[*:1]; αMeL = CC(C)C[C@](C)(N)C(=O)O; AEEA = NCCOCCOCC(=O)O; Aib = CC(C)(N)C(=O)O
Experiments:
human Gcg receptor = target: T1, human Gcg receptor (Homo sapiens, UniProt P47871); assay: [125I]-Glucagon binding (SPA), human Gcg receptor; conditions: read-out: hGLcgR Ki, nM (SEM, n)
T1 construct: expressed in transfected cells; crude membranes
T1 sequence (P47871 26-477): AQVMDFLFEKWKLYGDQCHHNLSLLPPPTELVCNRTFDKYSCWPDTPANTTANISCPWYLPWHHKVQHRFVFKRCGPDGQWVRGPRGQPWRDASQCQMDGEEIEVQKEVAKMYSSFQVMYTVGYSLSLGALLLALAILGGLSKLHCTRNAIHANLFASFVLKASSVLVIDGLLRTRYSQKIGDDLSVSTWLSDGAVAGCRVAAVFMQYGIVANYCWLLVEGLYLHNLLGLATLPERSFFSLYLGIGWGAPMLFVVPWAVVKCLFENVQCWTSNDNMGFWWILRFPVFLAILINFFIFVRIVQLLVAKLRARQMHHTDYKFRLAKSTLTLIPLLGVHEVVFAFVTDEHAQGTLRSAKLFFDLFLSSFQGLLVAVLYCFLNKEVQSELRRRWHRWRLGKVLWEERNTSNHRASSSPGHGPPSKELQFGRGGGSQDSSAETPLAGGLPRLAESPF
Method in brief: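 Cell pellets were lysed in hypotonic Tris buffer, pH 7.5, homogenized, and spun at low then high speed to give crude membranes. Ki was derived from the fitted IC50.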

human GIP receptor = target: T2, human GIP receptor (Homo sapiens, UniProt P48546); assay: [125I]-GIP binding (SPA), human GIP receptor; conditions: read-out: hGIPR Ki, nM (SEM, n)
T2 construct: expressed in transfected cells; crude membranes
T2 sequence (P48546 22-466): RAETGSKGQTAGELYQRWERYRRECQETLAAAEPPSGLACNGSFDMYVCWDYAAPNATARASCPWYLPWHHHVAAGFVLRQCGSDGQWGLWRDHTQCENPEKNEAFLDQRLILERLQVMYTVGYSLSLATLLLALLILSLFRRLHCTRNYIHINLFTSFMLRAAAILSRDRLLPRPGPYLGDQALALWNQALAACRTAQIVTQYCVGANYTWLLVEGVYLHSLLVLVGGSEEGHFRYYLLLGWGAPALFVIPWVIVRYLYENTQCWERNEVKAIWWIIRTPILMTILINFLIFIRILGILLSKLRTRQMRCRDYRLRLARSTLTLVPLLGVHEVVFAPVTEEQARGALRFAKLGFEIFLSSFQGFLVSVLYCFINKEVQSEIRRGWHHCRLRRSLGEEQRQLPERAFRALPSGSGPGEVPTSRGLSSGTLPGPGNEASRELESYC

[1] = target: human GLP-1 receptor (GLP-1R) (Homo sapiens, UniProt P43220); assay: cAMP pharmacological functional assay in presence of casein, hGLP-1R; type: cell-based; conditions: HEK293 cells expressing hGLP-1R, 0.1% Casein, geometric mean; read-out: hGLP1R cAMP Rel EC50 nM (SEM, n)
human GLP-1 receptor (GLP-1R), sequence (P43220 24-463): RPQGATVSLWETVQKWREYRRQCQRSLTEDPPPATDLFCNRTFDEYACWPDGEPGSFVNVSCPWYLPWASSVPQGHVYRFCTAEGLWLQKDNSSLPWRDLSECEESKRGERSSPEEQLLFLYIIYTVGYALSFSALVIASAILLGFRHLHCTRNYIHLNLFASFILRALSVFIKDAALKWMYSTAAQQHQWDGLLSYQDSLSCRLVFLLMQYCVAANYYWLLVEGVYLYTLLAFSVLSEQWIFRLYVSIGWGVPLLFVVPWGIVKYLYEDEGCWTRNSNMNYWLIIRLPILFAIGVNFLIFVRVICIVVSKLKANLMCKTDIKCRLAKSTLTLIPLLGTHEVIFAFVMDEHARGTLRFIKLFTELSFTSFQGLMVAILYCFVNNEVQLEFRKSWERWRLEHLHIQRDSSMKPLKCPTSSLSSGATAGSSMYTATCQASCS

[2] = target: T3, gastric inhibitory peptide receptor (GIPR) (Homo sapiens, UniProt P48546); assay: cAMP pharmacological functional assay in presence of casein, hGIPR; type: cell-based; conditions: HEK293 cells expressing hGIPR, 0.1% Casein, geometric mean; read-out: hGIPR cAMP Rel EC50 nM (SEM, n)
T3 sequence (P48546 22-466): T2 sequence (P48546 22-466)

human GLP-1R [3] = target: T4, human GLP-1R (Homo sapiens, UniProt P43220); assay: [125I]-GLP-1 binding (SPA), human GLP-1 receptor; parameters: expressed in transfected cells; crude membranes; conditions: read-out: hGLP1R Ki, (nM) (SEM, n)
T4 sequence (P43220 24-463): as above
Method in brief: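 Membranes: hypotonic lysis (50 mM Tris HCl, pH 7.5, protease inhibitors), Potter-Elvehjem homogenization, high-speed pellet (35000×g 1 h or 25000×g 30 min, 4° C.). Buffer: 25 mM HEPES pH 7.4, 2.5 mM CaCl2, 1 mM MgCl2. Four-parameter IC50 fit; Ki as geometric mean ± SEM.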

human GLP-1R [4] = target: T4, human GLP-1R; assay: GLP-1R CHO cell β-arrestin recruitment assay; type: cell-based; parameters: host or cells: CHO-K1 PathHunter cells, assay-ready frozen; conditions: for EC50: CHO-K1 cells, PathHunter β-arrestin-2 recruitment, 0.1% casein, read-out: hGLP1R B-Arrestin2 Rel EC50 uM (SEM, n); for hGLP1R B-Arrestin2 % Top: normalized to GLP-1 maximum control
Method in brief: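 PathHunter CHO-K1 cells with ProLink-tagged human GLP-1R and enzyme-acceptor-tagged β-arrestin-2 treated with serially diluted peptides in assay buffer containing 0.1% hydrolyzed casein, 90 min at 37 °C.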

human GLP-1R [5] = target: T4, human GLP-1R; assay: GLP-1R HEK293 cell membrane [35S]GTPγS binding assay; type: biochemical; parameters: expressed in transfected cells; host or cells: HEK293 cells expressing human GLP-1R; membranes; conditions: HEK293 cell membranes expressing human GLP-1R, [35S]GTPγS binding; read-out: hGLP1R GTPgS Rel EC50 nM (SEM, n)
Method in brief: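 Membranes from HEK293 cells expressing the receptor incubated with peptide and […] [35S]GTPγS in HEPES pH 7.4 buffer with NaCl, MgCl2, saponin and BSA, 30 min at room temperature. Gαs-bound label captured by anti-Gαs antibody/SPA beads and counted; EC50 from four-parameter logistic fit.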

| SMILES | Ki (human Gcg receptor) | Ki (human GIP receptor) | EC50 [1] | EC50 [2] | Ki (human GLP-1R [3]) | EC50 (human GLP-1R [4]) | hGLP1R B-Arrestin2 % Top (human GLP-1R [4]) | EC50 (human GLP-1R [5]) |
| --- | --- | --- | --- | --- | --- | --- | --- | --- |
| CC[C@H](C)[C@H](NC(=O)[C@H](CC(C)C)NC(=O)[C@H](Cc1ccc(O)cc1)NC(=O)[C@H](CCC(=O)O)NC(=O)[C@@H](NC(=O)[C@H](Cc1ccccc1)NC(=O)[C@H](C)NC(=O)C(C)(C)NC(=O)[C@H](CCC(N)=O)NC(=O)[C@H](C)NC(=O)[C@H](CCCCNC(=O)COCCOCCNC(=O)COCCOCCNC(=O)CC[C@H](NC(=O)CCCCCCCCCCCCCCCCCCC(=O)O)C(=O)O)NC(=O)[C@H](CCCCN)NC(=O)[C@H](CC(=O)O)NC(=O)[C@H](CC(C)C)NC(=O)[C@](C)(CC(C)C)NC(=O)[C@@H](NC(=O)[C@H](CO)NC(=O)[C@H](Cc1ccc(O)cc1)NC(=O)[C@H](CC(=O)O)NC(=O)[C@H](CO)NC(=O)[C@@H](NC(=O)[C@H](Cc1ccccc1)NC(=O)[C@@H](NC(=O)CNC(=O)[C@H](CCC(=O)O)NC(=O)C(C)(C)NC(=O)[C@@H](N)Cc1ccccc1)[C@@H](C)O)[C@@H](C)O)[C@@H](C)CC)[C@@H](C)CC)C(=O)N[C@@H](C)C(=O)NCC(=O)NCC(=O)N1CCC[C@H]1C(=O)N[C@@H](CO)C(=O)N[C@@H](CO)C(=O)NCC(=O)N[C@@H](C)C(=O)N1CCC[C@H]1C(=O)N1CCC[C@H]1C(=O)N1CCC[C@H]1C(=O)N[C@@H](CO)C(N)=O [Example 337] (H-F[Aib]EGTFTSDYSI[αMeL]LDKK([AEEA-AEEA-γGlu-C20 diacid])AQ[Aib]AFIEYLIAGGPSSGAPPPS-NH2) | 335 nM | 0.0363 nM | 0.173 nM | 0.0515 nM | 1.61 nM | 0.0174 µM | 34.1% | 0.322 nM |
| CC[C@H](C)[C@H](NC(=O)[C@H](CC(C)C)NC(=O)[C@H](Cc1ccc(O)cc1)NC(=O)[C@H](CCC(=O)O)NC(=O)[C@@H](NC(=O)[C@H](Cc1ccccc1)NC(=O)[C@H](CCC(=O)O)NC(=O)C(C)(C)NC(=O)[C@H](CCC(N)=O)NC(=O)[C@H](C)NC(=O)[C@H](CCCCNC(=O)COCCOCCNC(=O)CC[C@H](NC(=O)CCCCCCCCCCCCCCCCCCC(=O)O)C(=O)O)NC(=O)[C@H](CCCCN)NC(=O)[C@H](CC(=O)O)NC(=O)[C@H](CC(C)C)NC(=O)[C@](C)(CC(C)C)NC(=O)[C@@H](NC(=O)[C@H](CO)NC(=O)[C@H](Cc1ccc(O)cc1)NC(=O)[C@H](CC(=O)O)NC(=O)[C@H](CO)NC(=O)[C@@H](NC(=O)[C@H](Cc1ccccc1)NC(=O)[C@@H](NC(=O)CNC(=O)[C@H](CCC(=O)O)NC(=O)C(C)(C)NC(=O)[C@@H](N)Cc1ccc(O)cc1)[C@@H](C)O)[C@@H](C)O)[C@@H](C)CC)[C@@H](C)CC)C(=O)N[C@@H](C)C(=O)NCC(=O)NCC(=O)N1CCC[C@H]1C(=O)N[C@@H](CO)C(=O)N[C@@H](CO)C(=O)NCC(=O)N[C@@H](C)C(=O)N1CCC[C@H]1C(=O)N1CCC[C@H]1C(=O)N1CCC[C@H]1C(=O)N[C@@H](CO)C(N)=O [Example 339] (H-Y[Aib]EGTFTSDYSI[αMeL]LDKK([AEEA-γGlu-C20 diacid])AQ[Aib]EFIEYLIAGGPSSGAPPPS-NH2) | 873 nM | 0.0388 nM | 0.0986 nM | 0.0219 nM | 2.69 nM | 0.0107 µM | 44.0% | 0.326 nM |
| CC[C@H](C)[C@H](NC(=O)[C@H](CC(C)C)NC(=O)[C@H](Cc1ccc(O)cc1)NC(=O)[C@H](CCC(=O)O)NC(=O)[C@@H](NC(=O)[C@H](Cc1ccccc1)NC(=O)[C@H](C)NC(=O)C(C)(C)NC(=O)[C@H](CCC(N)=O)NC(=O)[C@H](C)NC(=O)[C@H](CCCCNC(=O)COCCOCCNC(=O)COCCOCCNC(=O)CC[C@H](NC(=O)CCCCCCCCCCCCCCCCCCC(=O)O)C(=O)O)NC(=O)[C@H](CCCCN)NC(=O)[C@H](CC(=O)O)NC(=O)[C@H](CC(C)C)NC(=O)[C@](C)(CC(C)C)NC(=O)[C@@H](NC(=O)[C@H](CO)NC(=O)[C@H](Cc1ccc(O)cc1)NC(=O)[C@H](CC(=O)O)NC(=O)[C@H](CO)NC(=O)[C@@H](NC(=O)[C@H](Cc1ccccc1)NC(=O)[C@@H](NC(=O)CNC(=O)[C@H](CCC(=O)O)NC(=O)C(C)(C)NC(=O)[C@H](N)Cc1ccc(O)cc1)[C@@H](C)O)[C@@H](C)O)[C@@H](C)CC)[C@@H](C)CC)C(=O)N[C@@H](C)C(=O)NCC(=O)NCC(=O)N1CCC[C@H]1C(=O)N[C@@H](CO)C(=O)N[C@@H](CO)C(=O)NCC(=O)N[C@@H](C)C(=O)N1CCC[C@H]1C(=O)N1CCC[C@H]1C(=O)N1CCC[C@H]1C(=O)N[C@@H](CO)C(N)=O [Example 340] (H-[dY][Aib]EGTFTSDYSI[αMeL]LDKK([AEEA-AEEA-γGlu-C20 diacid])AQ[Aib]AFIEYLIAGGPSSGAPPPS-NH2) | 250 nM | 0.0507 nM | 0.252 nM | 0.0823 nM | 2.08 nM | 0.0107 µM | 20.1% | 0.45 nM |
| CC[C@H](C)[C@H](NC(=O)[C@H](CC(C)C)NC(=O)[C@H](Cc1ccc(O)cc1)NC(=O)[C@H](CCC(=O)O)NC(=O)[C@@H](NC(=O)[C@H](Cc1ccccc1)NC(=O)[C@H](C)NC(=O)C(C)(C)NC(=O)[C@H](CCC(N)=O)NC(=O)[C@H](C)NC(=O)[C@H](CCCCNC(=O)COCCOCCNC(=O)COCCOCCNC(=O)CC[C@H](NC(=O)CCCCCCCCCCCCCCCCCCC(=O)O)C(=O)O)NC(=O)[C@H](CCC(=O)O)NC(=O)[C@H](CC(=O)O)NC(=O)[C@H](CC(C)C)NC(=O)[C@](C)(CC(C)C)NC(=O)[C@@H](NC(=O)[C@H](CO)NC(=O)[C@H](Cc1ccc(O)cc1)NC(=O)[C@H](CC(=O)O)NC(=O)[C@H](CO)NC(=O)[C@@H](NC(=O)[C@H](Cc1ccccc1)NC(=O)[C@@H](NC(=O)CNC(=O)[C@H](CCC(=O)O)NC(=O)C(C)(C)NC(=O)[C@H](N)Cc1ccc(O)cc1)[C@@H](C)O)[C@@H](C)O)[C@@H](C)CC)[C@@H](C)CC)C(=O)N[C@@H](C)C(=O)NCC(=O)NCC(=O)N1CCC[C@H]1C(=O)N[C@@H](CO)C(=O)N[C@@H](CO)C(=O)NCC(=O)N[C@@H](C)C(=O)N1CCC[C@H]1C(=O)N1CCC[C@H]1C(=O)N1CCC[C@H]1C(=O)N[C@@H](CO)C(N)=O [Example 341] (H-[dY][Aib]EGTFTSDYSI[αMeL]LDEK([AEEA-AEEA-γGlu-C20 diacid])AQ[Aib]AFIEYLIAGGPSSGAPPPS-NH2; N-terminus assumed) | 39.7 nM | 0.0559 nM | 0.373 nM | 0.238 nM | 6.49 nM | 0.0188 µM | 21.9% | 0.496 nM |

From patent publication US12252524B2, “GIP/GLP1 co-agonist compounds” (Eli Lilly and Company, priority 2018, dated 2025)
